Measurements as given in US8648105B2, “Diarylthiohydantoin compounds” (The Regents of the University of California, priority 2006, dated 2014).
Where a chain is given by its changes, count along the chain named.

Experiments:
[1] = molecular target: T1, AR (Homo sapiens, UniProt P10275); assay type: cell-based; parameters: Fold induction, AR response reporter; settings: LN-AR, absence of R1881
T1 sequence (P10275 1-920): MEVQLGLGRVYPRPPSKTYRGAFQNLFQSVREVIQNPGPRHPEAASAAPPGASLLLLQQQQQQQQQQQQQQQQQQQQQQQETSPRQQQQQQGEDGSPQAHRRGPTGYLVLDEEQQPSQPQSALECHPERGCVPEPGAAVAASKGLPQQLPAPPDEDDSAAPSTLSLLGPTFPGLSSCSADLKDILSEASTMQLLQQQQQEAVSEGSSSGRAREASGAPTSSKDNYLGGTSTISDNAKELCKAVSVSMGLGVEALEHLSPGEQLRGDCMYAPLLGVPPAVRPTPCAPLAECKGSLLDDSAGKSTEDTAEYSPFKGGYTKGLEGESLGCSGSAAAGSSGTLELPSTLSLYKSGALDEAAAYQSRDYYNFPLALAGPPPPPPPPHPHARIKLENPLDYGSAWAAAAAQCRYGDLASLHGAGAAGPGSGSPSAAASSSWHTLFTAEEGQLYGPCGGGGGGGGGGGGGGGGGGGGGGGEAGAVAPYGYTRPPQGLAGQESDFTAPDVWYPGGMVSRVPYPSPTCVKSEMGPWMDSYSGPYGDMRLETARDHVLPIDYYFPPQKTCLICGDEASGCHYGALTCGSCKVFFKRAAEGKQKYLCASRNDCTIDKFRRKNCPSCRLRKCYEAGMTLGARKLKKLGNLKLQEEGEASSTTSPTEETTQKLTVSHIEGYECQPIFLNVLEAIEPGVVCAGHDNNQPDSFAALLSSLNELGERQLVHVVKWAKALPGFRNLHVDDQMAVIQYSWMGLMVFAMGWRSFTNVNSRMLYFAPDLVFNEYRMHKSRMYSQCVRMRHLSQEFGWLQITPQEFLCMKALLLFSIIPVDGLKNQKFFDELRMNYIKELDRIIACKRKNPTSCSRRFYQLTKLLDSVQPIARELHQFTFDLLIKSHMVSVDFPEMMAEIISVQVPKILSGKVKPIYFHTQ
Experimental: Activities of AR response reporter were measured.

[2] = molecular target: T1, AR; assay type: cell-based; parameters: Fold induction, AR response reporter; settings: for rank by relative PSA level, most active to least active: 500 nM; for decrease in PSA level of LNCaP-AR cells (comparison): 1000 nM
Experimental: It is well established that PSA levels are indicators of AR activities in prostate cancer. […] The LNCaP-AR cells are a line of lymph node carcinoma of prostate cells transduced with a plasmid that makes express androgen receptors. […] After four days incubation, secreted PSA levels were assayed using PSA ELISA kits (American Qualex, San Clemente, Calif.)

[3] = system: 3T3; test: Growth effect on 3T3 cells; assay type: cell-based; settings: 3T3 normal mouse fibroblast cell line
[4] = system: MCF7; test: Growth effect on MCF7 cells; assay type: cell-based; settings: MCF7 breast cancer cells
[5] = system: DU-145 cells; test: MTS growth assay in DU-145 cells; assay type: cell-based; settings: DU-145, lacks AR expression
[6] = system: SkBr3; test: Growth effect on SkBr3 cells; assay type: cell-based; settings: SkBr3 breast cancer cells
[7] = system: AR; assay type: cell-based; settings: FIG. 24
Experimental: (§1) The compounds were subjected to tests using an artificial AR response reporter system in a hormone refractory prostate cancer cell line. […] After two days of incubation, reporter activities were assayed.

[8] = Pharmacokinetics, drug concentration in mouse serum/plasma by HPLC; settings: in vivo
Experimental: Mice were divided into groups of three for each time points. Two mice were not treated with drug and two other mice were treated with vehicle solution. Each group was treated with 10 mg per kilogram of body weight.
The drug was dissolved in a mixture 1:5:14 of DMSO:PEG400: H20. (Vehicle solution) and was administered into mice through the tail vein. The animals are warmed under a heat lamp for approximately 20 minutes prior to treatment to dilate their tail vein. […] After drug administration, the animals were euthanized via CO2 inhalation at different timepoints: 5 nm, 30 nm, 2 h, 6 h, 16 h. Animals were immediately bleed after exposure to CO2 via cardiac puncture (1 ml BD syringe+27 G ⅝ needle).
The samples for HPLC analysis were prepared according to the following procedure:
Blood cells were separated from serum by centrifugation.
To 400 μl of serum were added 80 μl of a 10 μM solution of an internal standard and 520 μl of acetonitrile. Precipitation occurred.
The mixture was vortexed for 3 minutes and then placed under ultrasound for 30 minutes.
The solid particles were filtered off or were separated by centrifugation.
The filtrate was dried under an argon flow to dryness.

[9] = molecular target: T1, AR; assay type: cell-based; parameters: Fold induction, AR response reporter; settings: AR over expressed LNCaP, absence of R1881
[10] = molecular target: T2, glucocorticoid receptor (GR) (Homo sapiens, UniProt P04150); test: GR response reporter in LNCaP cells over expressing glucocorticoid receptor; assay type: cell-based
T2 construct: expressed in transfected cells; host or cells: LNCaP cells
T2 sequence (P04150 1-777): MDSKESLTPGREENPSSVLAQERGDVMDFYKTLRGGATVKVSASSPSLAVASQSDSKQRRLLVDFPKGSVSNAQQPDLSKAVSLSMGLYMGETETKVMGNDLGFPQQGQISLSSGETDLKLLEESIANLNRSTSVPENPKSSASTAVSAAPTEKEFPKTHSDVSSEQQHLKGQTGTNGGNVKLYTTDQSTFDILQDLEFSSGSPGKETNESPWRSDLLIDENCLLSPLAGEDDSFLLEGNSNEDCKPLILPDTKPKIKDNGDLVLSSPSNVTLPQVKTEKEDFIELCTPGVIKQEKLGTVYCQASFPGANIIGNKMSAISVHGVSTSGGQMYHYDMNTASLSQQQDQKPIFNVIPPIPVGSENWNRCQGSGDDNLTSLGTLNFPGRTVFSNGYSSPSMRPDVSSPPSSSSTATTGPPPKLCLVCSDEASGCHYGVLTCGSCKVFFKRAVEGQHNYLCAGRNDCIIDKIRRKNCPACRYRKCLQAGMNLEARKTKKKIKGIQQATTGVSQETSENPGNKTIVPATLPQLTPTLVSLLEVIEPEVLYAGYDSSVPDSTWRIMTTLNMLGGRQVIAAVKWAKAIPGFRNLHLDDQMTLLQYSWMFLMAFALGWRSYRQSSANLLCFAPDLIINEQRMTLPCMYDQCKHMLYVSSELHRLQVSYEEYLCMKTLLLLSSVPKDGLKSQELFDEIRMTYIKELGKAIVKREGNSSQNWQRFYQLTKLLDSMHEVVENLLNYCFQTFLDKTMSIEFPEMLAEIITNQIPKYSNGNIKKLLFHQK

[11] = molecular target: T3, androgen receptor (Homo sapiens, UniProt P10275, T878A); settings: 10 uM (R1881 1 nM), LNCaP
T3 sequence (P10275 1-920 T878A): T1 sequence (P10275 1-920) with T878A

[12] = system: LIAR cell line; test: Luciferase activity of the LIAR cell line (FIG. 25); assay type: cell-based; settings: 125 nmol to 1000 nmol
Excerpt: FIG. 25 is a graph of luciferase activity of the LIAR cell line dosed with various compounds administered at concentrations ranging from 125 nmol to 1000 nmol.
The inventors have determined that what might appear to be a small change in the structure of hydantoin compounds may result in a large change in that compound's performance in treating prostate cancer.

[13] = molecular target: T1, AR; assay type: cell-based; parameters: Fold induction, AR response reporter; settings: FIG. 3
Experimental: as §1

[14] = Ranking of compounds in tiers for utility in treating prostate cancer
Excerpt: The placement of compounds into tiers was based on available data coupled with analytical judgment. Data considered included in vitro assays (AR response reporter system in LNCaP cell line, PSA level measurement, MTS mitochondrial assay) and in vivo experiments (tumor size measured directly or by emission induced by luciferase reporter gene, pharmacokinetic assays based on blood plasma levels). Not every compound was subjected to each assay. Not all data that was generated is shown. Judgment was applied in ranking compounds relative to each other for their utility in treating prostate cancer, in particular when ranking two compounds for which the same experiments were not performed.

[15] = LogP; assay type: physicochemical

Cc1ccc(N2C(=S)N(c3ccc(C#N)c(C(F)(F)F)c3)C(=O)C23CCC3)cc1 [NC7, 4-(8-oxo-6-thioxo-5-(4-methylphenyl)-5,7-diazaspiro[3.4]oct-7-yl)-2-trifluoromethylbenzonitrile]
agonistic activity on AR response reporter [1]: no agonistic activity
rank by relative PSA level, most active to least active [2]: NC50>NC48>NC7>NC43>NC44>NC49>NC50>NC45>bicalutamide
decrease in PSA level of LNCaP-AR cells (comparison) [2]: greater decrease in PSA level of LNCaP-AR cells than NC43, NC44, and NC50
growth effect [3]: no growth effect
growth effect [4]: no growth effect
growth inhibitory effect [5]: no growth inhibitory effect
growth effect [6]: no growth effect
IC50 (comparison) [7]: much lower than the IC50 for bicalutamide
pharmacokinetic behavior, residence time in blood [8]: metabolize fast
agonistic activity on secreted PSA [9]: no agonistic activities
effect on GR response reporter [10]: no effect on GR

C[C@]1(O)CC[C@H]2[C@@H]3CCC4=CC(=O)CCC4=C3C=C[C@@]21C [R1881, methyltrienolone, reference compound]
induction of secreted PSA level [2]: strongly induced
androgen receptor nuclear translocation [11]: nuclear translocation of the androgen receptor occurred

CNC(=O)c1ccc(N2C(=S)N(c3ccc(C#N)c(C(F)(F)F)c3)C(=O)C23CCC3)cc1 [NC77]
luciferase activity (comparison) [12]: less than the luciferase activity upon exposure to NC98
luciferase activity in LNCaP-AR cells ([13]; 125 nM to 1000 nM): acted to reduce luciferase activity
rank by relative luciferase activity, most active to least active ([13]; 500 nM): NC67>NC68>NC66>NC69>NC77=NC53>bicalutamide

CNC(=O)CCCc1ccc(N2C(=S)N(c3ccc(C#N)c(C(F)(F)F)c3)C(=O)C23CCC3)cc1 [NC48, 4-{4-[7-(4-Cyano-3-trifluoromethylphenyl)-8-oxo-6-thioxo-5,7-diaza-spiro[3.4]oct-5-yl]-phenyl}-N-methyl-butyramide]
rank by relative PSA level, most active to least active [2]: NC50>NC48>NC7>NC43>NC44>NC49>NC50>NC45>bicalutamide
decrease in PSA level of LNCaP-AR cells (comparison) [2]: greater decrease in PSA level of LNCaP-AR cells than NC43, NC44, and NC50
PSA levels ([2]; LN-AR cells, FIG. 23): PSA levels decreased
PSA level (comparison) ([2]; LN/AR cell line, 125 nmol to 1000 nmol): less than the PSA level upon exposure to NC42 and NC46
IC50 (comparison) [7]: much lower than the IC50 for bicalutamide
pharmacokinetic behavior, residence time in blood [8]: metabolize fast
activity remarks in the ranking [14]: particularly advantageous
logP [15]: 3.44
